Results on six compounds are retold here after ChEMBL document CHEMBL3244087, “Ergoline congeners as potential inhibitors of prolactin release. 3. Derivatives of 3-phenylpiperidine” (1977).

Each structure is given as a SMILES string.

In one test the test system is Rattus norvegicus. In words: Inhibition of prolactin release in reserpinized rat assessed as reduction in serum prolactin level at 1 mg, ip after 1 hr post dose by radioimmunoassay relative to untreated control. The format is functional.
In the case of `CCOC(=O)C1CN(C)CC(c2cc(OC)c(C)cc2OC)C1=O` (stereo unspecified), the “inhibition (INH)” value stood at 22%.

Turning to `CN1CCc2cccc3c2[C@H]1Cc1ccc(O)c(O)c1-3` [APOMORPHINE], the “inhibition (INH)” value came to 29%.

Another test deals with Rattus norvegicus. Description: Inhibition of prolactin release in reserpinized rat assessed as reduction in serum prolactin level at 2 mg, ip after 1 hr post dose by radioimmunoassay relative to untreated control. The class given is functional.
On to `COc1cc(C2CC(CC#N)CN(C)C2)c(OC)cc1C` (stereo unspecified), for which the “inhibition (INH)” value is -13%.

On to `CCOC(=O)C1=CC(c2cc(OC)c(C)cc2OC)CN(C)C1` (stereo unspecified), for which the “inhibition (INH)” value was -5%.

As to `CCOC(=O)C1CC(c2cc(OC)c(C)cc2OC)CN(C)C1` (stereo unspecified), the “inhibition (INH)” value came to 5%.

Consider `COc1cc(C2CC(CO)CN(C)C2)c(OC)cc1C` (stereo unspecified), for which the “inhibition (INH)” value is -2%.
